Results taken from patent US20090182028A1, “Plant Components and Extracts and Uses Thereof” (G.I.M. GESELLSCHAFT-FUR INNOVATIVE MEDIZIN G.M.B.H NFG OHG, priority 2006, published 2009).
Entries after “also recorded” stand apart in the source; their conditions may differ. Like-named read-outs stand apart in the source and are kept apart here. Each block holds one compound with its values, some of them ahead of it.

How the values were obtained:
Format in all cases: cell-based
[1] = target: T1, human AhR (Homo sapiens, UniProt P35869); assay: Yeast AhR screen (strain YCM3), assay in plastic tubes
T1 construct: expressed in transfected cells; host or cells: Saccharomyces cerevisiae strain YCM3 (gift of Charles Miller)
T1 sequence (P35869 11-848): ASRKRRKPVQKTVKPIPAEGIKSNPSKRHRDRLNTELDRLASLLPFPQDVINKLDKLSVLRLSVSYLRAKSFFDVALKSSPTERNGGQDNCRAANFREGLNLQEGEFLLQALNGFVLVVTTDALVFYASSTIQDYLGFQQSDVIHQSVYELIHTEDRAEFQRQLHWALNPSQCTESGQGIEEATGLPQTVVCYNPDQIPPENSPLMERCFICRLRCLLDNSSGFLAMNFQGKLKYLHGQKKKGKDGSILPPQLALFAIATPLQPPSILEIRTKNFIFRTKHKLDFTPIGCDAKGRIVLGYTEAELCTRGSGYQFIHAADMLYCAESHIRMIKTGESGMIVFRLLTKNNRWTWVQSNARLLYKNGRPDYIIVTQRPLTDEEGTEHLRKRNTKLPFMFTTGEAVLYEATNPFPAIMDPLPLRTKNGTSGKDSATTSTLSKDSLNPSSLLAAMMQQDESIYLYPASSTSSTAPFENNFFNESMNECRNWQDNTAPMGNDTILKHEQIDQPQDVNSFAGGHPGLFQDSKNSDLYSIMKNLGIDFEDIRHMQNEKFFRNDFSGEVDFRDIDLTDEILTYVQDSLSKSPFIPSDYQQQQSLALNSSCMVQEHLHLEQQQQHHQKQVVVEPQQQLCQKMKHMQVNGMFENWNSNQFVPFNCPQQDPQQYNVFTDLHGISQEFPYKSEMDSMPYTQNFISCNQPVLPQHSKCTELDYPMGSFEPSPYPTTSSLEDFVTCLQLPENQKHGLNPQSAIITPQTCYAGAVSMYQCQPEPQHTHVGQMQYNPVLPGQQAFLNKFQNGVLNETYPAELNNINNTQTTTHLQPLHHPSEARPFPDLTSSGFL
T1 sequence (P27540 whole entry partner): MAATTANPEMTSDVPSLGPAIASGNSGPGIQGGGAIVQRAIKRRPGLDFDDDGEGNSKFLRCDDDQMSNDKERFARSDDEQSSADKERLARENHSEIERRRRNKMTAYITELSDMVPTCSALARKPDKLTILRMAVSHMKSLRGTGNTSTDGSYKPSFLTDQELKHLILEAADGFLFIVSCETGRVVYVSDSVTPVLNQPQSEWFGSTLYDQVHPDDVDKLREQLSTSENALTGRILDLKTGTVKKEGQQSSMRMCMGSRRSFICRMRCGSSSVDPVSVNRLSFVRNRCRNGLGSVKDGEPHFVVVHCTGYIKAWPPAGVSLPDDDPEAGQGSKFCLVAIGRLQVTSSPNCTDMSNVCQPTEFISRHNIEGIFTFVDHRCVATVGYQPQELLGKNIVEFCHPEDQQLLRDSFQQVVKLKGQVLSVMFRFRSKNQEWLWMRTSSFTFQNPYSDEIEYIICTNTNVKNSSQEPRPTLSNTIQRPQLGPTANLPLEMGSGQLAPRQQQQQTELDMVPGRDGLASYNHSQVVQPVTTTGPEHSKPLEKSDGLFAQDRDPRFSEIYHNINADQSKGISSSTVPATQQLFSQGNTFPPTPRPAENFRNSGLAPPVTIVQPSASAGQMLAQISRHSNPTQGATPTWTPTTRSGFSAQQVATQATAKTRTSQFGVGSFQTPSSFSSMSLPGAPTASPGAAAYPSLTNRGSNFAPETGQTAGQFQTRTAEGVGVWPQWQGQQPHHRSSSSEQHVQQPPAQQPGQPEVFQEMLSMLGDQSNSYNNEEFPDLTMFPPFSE
Source text: (§1) The yeast AhR screen is an in-vitro test to detect transactivating potential of substances on the arylhydrocarbon receptor. The recombinant yeast strain YCM3 of Saccharomyces cerevisiae, which was a present of Charles Miller, was used. The assay procedure was essentially as described by Miller. The human AhR and ARNT genes are integrated into chromosome III of the yeast. The galactose-regulated GAL 1, 10 promotor is accountable for the expression of AhR and ARNT in equal shares by induction with galactose, the carbon source of the medium (GOLD medium-trp). If a ligand of the AhR is present, an AhR/ARNT heterodimer is built and can bind to the five xenobiotic response elements of the lacZ-reporter plasmid and induce the expression of the lacZ-gene. Therefore the transcriptional activation of a ligand is quantified via β-galactosidase activity. […] The yeast AhR assay was performed in 50 ml plastic tubes with conical bottom and in microtiterplates.
A colony of YCM3 was transferred in SCM-trp medium and grown to OD600 of about 2.0. For each experiment a new overnight culture was prepared in SCM-trp medium. For this purpose a 1:10 dilution of the YCM3 yeast stock in SCM-trp medium was prepared. After incubation overnight the culture was diluted to an OD600 of 0.4 and grown again to an OD600 of 1.0 to 1.5. For the assay the culture was 1:50 diluted in Gold galactose-trp media, which contains 1.2% galactose as the inductor. 50 μl of test substance (dissolved in DMSO) and 5 ml of this yeast culture were incubated for 17 h at 30° C. while shaking. The tubes have to be in an inclined position for optimal yeast growth. For the blank only 50 μl of DMSO were added to the yeast culture. A calibration curve with β-naphtoflavone was performed within each test run. After incubation cells were collected by centrifugation at 2500 rpm for 5 min. The supernatant was discarded, the pellets were resuspended in 1 ml lacZ-buffer, transferred into 1.5 ml test tubes and centrifuged at 10 000 rpm and 4° C. for 5 min. The supernatant was removed again and the pellets were resuspended in 100 μl lacZ buffer. Disintegration of the yeast cells was performed by vortexing with glass beads (3 times for 30 s with a rest on ice of 15 s between the vortexes). After centrifugation at 10 000 rpm and 4° C. for 10 min, the clear supernatant was used to perform the β-galactosidase and the protein-assay.
For the β-galactosidase-assay 5 μl from each test tube were transferred to a 96-well microtiterplate. 250 μl of a 1:6 diluted o-nitrophenyl-b-galactopyranoside (ONPG)-solution (dilution with lacZ-buffer) were added to each well. The microtiterplate was incubated at 37° C. until a yellow colour had developed. The reaction was stopped by adding 100 μl of 1 M Na2CO3 and the reaction time was noticed. […] Each determination was carried out in duplicates.
For the protein assay a modified method according to Bradford was performed. 5 μl of the supernatant of each test tube were transferred to the microtiterplate and 250 μl of Bio-Rad protein assay reagent (diluted with water 1:10) were added. […] As reference a standard curve with BSA was employed within each test. Each determination was carried out in duplicates.
The expression of β-galactosidase is equivalent to the quantity of the transactivating activity of substances and samples. The specific enzyme activity is expressed in AhR-units, which are the β-galactosidase-activity normalised to the total protein-level. The data were evaluated according Jungbauer et al..
(§2) For evaluation the AhR-units are plotted against the concentration (logarithmic scaling). The resulting curve is fitted using a logistic dose response function. The calculation and fitting was performed with Table Curve 2D software (Jandel Scientific).

[2] = target: T1, human AhR; assay: Yeast AhR screen (strain YCM3), assay in microtiterplate
Source text: as §1
A colony of YCM3 was transferred in SCM-trp medium and grown to OD600 of about 2.0. For each experiment a new overnight culture was prepared in SCM-trp. For this purpose a 1:10 dilution of the YCM3 yeast stock in SCM-trp medium was prepared. After incubation overnight the culture was diluted to an OD600 of 0.4 and grown again to an OD600 of 1.0 to 1.5. For the assay the culture was 1:50 diluted in Gold galactose-trp media, which contains 1.2% galactose as the inductor.
1 μl of test substance (dissolved in DMSO) and 100 μl of the yeast culture in galactose media were transferred in the wells (flat bottom) of a 96-well sterile microtiterplate. Each determination was carried out in duplicates. A calibration curve with β-naphtoflavone was performed within each test run. For better results only the inner part of the plate was used for the assay, because of a greater evaporation in the outer wells (row A and H, column 1 and 12). 150 μl of the diluted yeast culture were transferred into the outer wells. The microtiterplate was incubated for 17 h at 30° C. and while shaking.
The disintegration of the assay was performed with N-lauroylsarcosine, a strong detergent. A related method was described by Kippert, who used 1.5 ml centrifuge tubes and a disintegration with a 0.2% sarcosyl-solution. For the microtiterplate assay a modified version was used and the disintegration was performed via a 0.5% sarcosyl-solution. To circumvent a centrifugation of the plate and a transfer of the supernatant in another plate, what would complicate the assay unnecessarily, the calculation of the AhR-units was related to the optical density of 600 nm, instead of the protein level. A similar proceeding was applied by Adachi et al. and Miller.
After incubation 150 μl Z-Sarcosyl-buffer to each well were added. Then the OD was measured at 600 nm. For complete disintegration of the cells the plate was incubated for 20 min at 30° C. Afterwards 50 μl of ONPG-solution (a 1:6 diluted) were added to each well and incubated at 37° C. until a yellow colour had developed. The reaction was stopped by adding of 50 μl 1 M Na2CO3 and the reaction time was noticed. The absorption was measured at 405 nm (reference wavelength 620 nm).
The results of the β-galactosidase-assay of the AhR screen in microtiterplates were referenced to cell density (measured as the optical cell density at a wavelength of 600 nm). The calculation of the AhR-units is realised as follows:
OD405 and OD600 are the optical densities at a wavelength of 405 nm respectively 600 nm and Δt is the incubation time at 37° C. in minutes.
as §2

[3] = target: T1, human AhR; assay: Yeast AhR assay, format (tubes or microtiterplate) not stated
Source text: as §1, §2
The equivalent concentrations of the extracts and samples were calculated from the logistic dose-response curve of β-naphtoflavone (FIG. 8) and expressed as nmol β-naphtoflavone per g sample or volume of sample.

[4] = in plastic tubes, logistic dose response fit
[5] = in microtiterplate, logistic dose response fit
[6] = in microtiterplate, logistic dose response fit, read-out: Potency

Compound: CC(=O)[C@H]1CC[C@H]2[C@@H]3CCC4=CC(=O)CC[C@]4(C)[C@H]3CC[C@]12C [Progesteron]
- Potency (mol/l) [1, 4]: no activity
- transactivation of the AhR (in words) ([1]; pure compounds in DMSO): failed also in transactivating the AhR

Compound: O=C(O)c1cc(O)c(O)c(O)c1 [Gallic acid]
- Potency (mol/l) [1]: no activity
- transactivation of the AhR (in words) [1]: no activity

Compound: O=C(Cc1c[nH]c2ccccc12)c1ccco1 [compound “X”, 1-(2-furanyl)2-(3-indolyl)ethanone]
- equivalent concentration ([3]; preliminary isolate from preparative HPLC): 79 μmol β-naphtoflavone per gram sample

Compound: CC[C@H](CC[C@@H](C)[C@H]1CC[C@H]2[C@@H]3CC=C4C[C@@H](O)CC[C@]4(C)[C@H]3CC[C@]12C)C(C)C [β-Sitosterol]
- Potency (mol/l) [1, 4]: no activity
- transactivation of the AhR (in words) ([1]; pure compounds in DMSO): failed also in transactivating the AhR

Compound: COc1ccc(-c2cc(=O)c3c(OC)c(OC)c(OC)c(OC)c3o2)cc1 [Tangeritin]
- Potency (mol/l) [1]: no activity
- transactivation of the AhR (in words) [1]: no activity

Compound: O=c1oc2cc(O)ccc2c2oc3cc(O)ccc3c12 [Coumestrol]
- EC50 [1]: 2090 nM
- EC50 [2]: 1040 nM

Compound: O=c1c(-c2ccc(O)cc2)coc2cc(O)ccc12 [Daidzein]
- Potency (mol/l) [1]: no activity

Compound: Catechin
- Potency (mol/l) [1, 4]: no activity

Compound: OCc1c[nH]c2ccccc12 [Indole-3-carbinol]
- EC50 [2]: 7000 nM
- EC50 [3]: 7000 nM

Compound: C[C@]12CC[C@@H]3c4ccc(O)cc4CC[C@H]3[C@@H]1CC[C@@H]2O [17-β-Estradiol]
- Potency (mol/l) [1, 4]: no activity

Compound: CCCCOC(=O)c1ccccc1C(=O)OCCCC [Phtalic acid dibutyl ester]
- Potency (mol/l) [1]: no activity

More lines, main results first:

- Potency (mol/l) [1, 4]: no activity
Compound: COc1ccc(-c2cc(=O)c3c(O)cc(O[C@@H]4O[C@H](CO[C@@H]5O[C@@H](C)[C@H](O)[C@@H](O)[C@H]5O)[C@@H](O)[C@H](O)[C@H]4O)cc3o2)cc1O [Diosmin]

- transactivation of the AhR (in words) ([1]; pure compounds in DMSO): failed also in transactivating the AhR
Compound: CC/C(=C(/CC)c1ccc(O)cc1)c1ccc(O)cc1 [diethylstilbestrol]

- Potency (mol/l) [1, 4]: no activity
Compound: COc1cc(/C=C/C(=O)CC(=O)/C=C/c2ccc(O)c(OC)c2)ccc1O [Curcumin]

- Potency (mol/l) [1, 4]: no activity
- transactivation of the AhR (in words) ([1]; pure compounds in DMSO): no activity
Compound: O=C(O)/C=C/c1ccc(O)c(O)c1 [Caffeic acid]

- Potency (mol/l) [1]: active^c
- transactivation of the AhR (in words) ([1]; pure compounds in DMSO): a transactivation took place
- Potency (mol/l) [2]: active^c
Compound: Oc1ccc([C@H]2COc3cc(O)ccc3C2)cc1 [Equol]

- EC50 [1]: 923 nM
- EC50 [2]: 253 nM
- EC50 [3]: 120 to 920 nM
Compound: COc1ccc(-c2coc3cc(O)ccc3c2=O)cc1 [Formononetin]

- Potency (mol/l) [1]: active^c
- transactivation of the AhR (in words) ([1]; pure compounds in DMSO): a transactivation took place
- Potency (mol/l) [2, 5]: active^c
Compound: O=c1cc(-c2ccc(O)cc2)oc2cc(O)cc(O)c12 [Apigenin]

- Potency (mol/l) [1, 4]: active ^c
- transactivation of the AhR (in words) ([1]; pure compounds in DMSO): a transactivation took place
- Potency (mol/l) [2, 5]: active ^c
Compound: O=C1C[C@@H](c2ccc(O)cc2)Oc2cc(O)cc(O)c21 [Naringenin]

- EC50 [1]: 599 nM
- EC50 [2, 6]: 125 nM
Compound: COc1ccc(-c2coc3cc(O)cc(O)c3c2=O)cc1 [Biochanin A]

- EC50 ([1]; in plastic tubes, logistic dose response fit, read-out: Potency): 10 nM
- EC50 [2, 6]: 280 nM
- EC50 ([3]; Example 10 text, read-out: EC50 value of the standard compound): ~10 nM
- EC50 ([3]; reference standard, read-out: EC50 value): 28 nM
Compound: O=c1cc(-c2ccccc2)oc2ccc3ccccc3c12 [β-Naphtoflavone]

- Potency (mol/l) [1, 4]: no activity
- transactivation of the AhR (in words) ([1]; pure compounds in DMSO): no activity
Compound: COc1cc(/C=C/C(=O)O)ccc1O [Ferulic acid]

- Potency (mol/l) [1, 4]: no activity
Compound: O=c1c(O)c(-c2ccc(O)c(O)c2)oc2cc(O)cc(O)c12 [Quercetin]
- transactivation of the AhR (in words) ([1]; pure compounds in DMSO): no activity; also recorded: do not activate the AhR

- Potency (mol/l) [1, 4]: no activity
Compound: O=C(CCc1ccc(O)cc1)c1c(O)cc(O)cc1O [Phloretin]

- Potency (mol/l) [1, 4]: no activity
Compound: O=c1c(-c2ccc(O)cc2)coc2cc(O)cc(O)c12 [Genistein]
- transactivation of the AhR (in words) ([1]; pure compounds in DMSO): no transcriptional activity; also recorded: do not activate the AhR

- Potency (mol/l) [1, 4]: no activity
Compound: Oc1cc(O)c2c(c1)O[C@H](c1ccc(O)c(O)c1)[C@H](O)C2 [Epicatechin]
